Literature values in patent US20240315993A1, “ANTIPARASITIC COMPOUNDS” (Intervet Inc., priority 2021, published 2024).

How the values were obtained:
[1] = tested on: Beet Armyworm (Spodoptera exigua); details: Beet Armyworm second instar larvae, 128-well diet tray, 50 μg/cm^2, five to seven days, average of eight wells; cited from earlier work
[2] = tested on: Cabbage Looper (Trichoplusia ni); details: Cabbage Looper second instar larvae, 128-well diet tray, 50 μg/cm^2, five to seven days, average of eight wells; cited from earlier work
[3] = tested on: Yellow Fever Mosquito (Aedes aegypti); details: Aedes aegypti larvae about 1 day old, 96-well plate, scored after 3 days; cited from earlier work

Structure (SMILES)	Test A: Bioassay on BAW, percent mortality rating [1]	Test B: Bioassay on CL, percent mortality rating [2]	Test C: Bioassay on Yellow Fever Mosquito, mortality rating [3]
C=C(c1ccc(NC(=O)c2cc(NC(=O)C3C(c4cc(Cl)cc(Cl)c4)C3(Cl)Cl)ccc2Cl)c(C)c1)C(F)(F)F (stereo not drawn) [c72]	A (50-100)	A (50-100)	B (More than 0 - Less than 80)
CNc1ccc(N(C)C(=O)c2cc(NC(=O)C3C(c4cc(Cl)cc(Cl)c4)C3(Cl)Cl)ccc2Cl)c(C)c1 (stereo not drawn) [c48]	A (50-100)	A (50-100)	D (No activity noticed in this bioassay)
CC(=O)Nc1cccc(NC(=O)c2cc(NC(=O)C3C(c4cc(Cl)cc(Cl)c4)C3(Cl)Cl)ccc2Cl)n1 (stereo not drawn) [c90]	A (50-100)	A (50-100)	A (80-100)
O=C(Nc1ccc2nccn2c1)c1cc(NC(=O)C2C(c3cc(Cl)cc(Cl)c3)C2(Cl)Cl)ccc1Cl (stereo not drawn) [c62]	A (50-100)	A (50-100)	A (80-100)
COC(=O)C(O)(c1ccc(NC(=O)c2cc(NC(=O)C3C(c4cc(Cl)cc(Cl)c4)C3(Cl)Cl)ccc2Cl)c(C)c1)C(F)(F)F (stereo not drawn) [c71]	A (50-100)	A (50-100)	A (80-100)
CC(C)(C)OC(=O)Nc1cccc(NC(=O)c2cc(NC(=O)C3C(c4ccc(F)c(Cl)c4)C3(Cl)Cl)ccc2Cl)n1 (stereo not drawn) [c98]	A (50-100)	A (50-100)	A (80-100)
O=C(Nc1ccc2c(ccn2Cc2ccccc2)c1)c1cc(NC(=O)C2C(c3cc(Cl)cc(Cl)c3)C2(Cl)Cl)ccc1Cl (stereo not drawn) [c37]	A (50-100)	A (50-100)	D (No activity noticed in this bioassay)
Cc1cc(NC(=O)OC(C)(C)C)ccc1NC(=O)c1cc(NC(=O)C2C(c3cc(Cl)cc(Cl)c3)C2(Cl)Cl)ccc1Cl (stereo not drawn) [c81]	A (50-100)	A (50-100)	A (80-100)
Cc1ccc(-c2csc(NC(=O)c3cc(NC(=O)[C@H]4[C@H](c5cc(Cl)cc(Cl)c5)C4(Cl)Cl)ccc3Cl)n2)cc1 [c24]	A (50-100)	A (50-100)	D (No activity noticed in this bioassay)
O=C(Nc1cc(C(F)(F)F)[nH]n1)c1cc(NC(=O)[C@H]2[C@H](c3cc(Cl)cc(Cl)c3)C2(Cl)Cl)ccc1Cl [c17]	A (50-100)	A (50-100)	D (No activity noticed in this bioassay)
Cc1cc(N)ccc1NC(=O)c1cc(NC(=O)C2C(c3cc(Cl)cc(Cl)c3)C2(Cl)Cl)ccc1Cl (stereo not drawn) [c59]	A (50-100)	A (50-100)	A (80-100)
Cc1cc(N)ccc1NC(=O)c1cc(NC(=O)C2C(c3cc(Cl)cc(Br)c3)C2(Cl)Cl)ccc1Cl (stereo not drawn) [c103]	A (50-100)	A (50-100)	A (80-100)
